PubChem BioAssay AID2060490 (Molecular Pharmacology Branch, DTP, NCI, 2025)
“And” between values parts separate entries of the source, which are not always exact repeats. Equal entries are not always repeated.

Tested on: 885512-296-R-J2-PDC complex spheroid viability
Assay: Anticancer human tumor 885512-296-R-J2-PDC patient-derived breast carcinoma cell line growth inhibition [GQUAD]
Settings: for viability, T/C: stronger effect = lower value
From the text: DNA G-quadruplex Stabilizer Agents in Combinations in Complex Spheroids
A high-throughput screen of multi-cell type tumor spheroids was designed to identify active combinations of DNA G-quadruplex stabilizer agents and targeted small molecules. Complex spheroids include a stromal component modeled by human endothelial cells (HUVEC) and fibroblasts modeled by human mesenchymal stem cells (MSCs). The concentration ranges selected for each drug and investigational agent were based upon clinically achievable concentrations if the clinical Cmax of the agent was known.
Compounds. The drugs and investigational agents: pidnarulex (CX-5461; NSC782164), APTO-253 (NSC789042), BRACO-19 (NSC847499), peposertib (NSC802822), ceralasertib (NSC780249), elimusertib (NSC800525), camonsertib (NSC841442), AZD-1390 (NSC803789), olaparib (NSC753686), talazoparib (NSC767125), ART-558 (NSC835418), sotorasib (NSC818433), MRTX-1133 (NSC836407), SN-38 (NSC673596), topotecan (NSC609699), etoposide (NSC141540), doxorubicin (NSC123127), gemcitabine (NSC613327), 5-fluorouracil (NSC19893), paclitaxel (NSC125973), vemurafenib (NSC761431), panobinostat (NSC761190), R-306465 (JNJ-16241199; NSC773264), adavosertib (NSC754352), TP-3654 (NSC805149), carboplatin (NSC241240), KSQ-4279 (NSC840948), and staurosporine (NSC755774) were obtained from the National Cancer Institute (NCI) Developmental Therapeutics Program Chemical Repository (34). The FDA-approved anticancer drug set is available from the NCI Developmental Therapeutics Program. […] The stock solutions were prepared in dimethyl sulfoxide (DMSO, Sigma-Aldrich, St. Louis, MO, cat. D2650) at 800-fold the tested concentration and stored at -70 degrees C prior to their use. All drugs and investigational agents were tested over a range starting from a high concentration at or near the clinical Cmax and decreasing in half-log increments. If the clinical Cmax for an agent had not been determined, the highest concentration tested was 10 microM.
2.3 Cell Culture. All cells were maintained in an incubator at 37 degrees C and 5% CO2 with 95% humidity. The PDC lines were cultured according to standard operating procedures established by the NCI PDMR. All PDCs were thawed and cultured in Matrigel-coated flasks prepared with a working solution of 1X Ham's F-12 nutrient mix, without supplementation (Invitrogen, cat. 11765054), 100 U/mL penicillin-streptomycin (Invitrogen, cat. 15140122), and 2.5% Matrigel (Corning Inc., cat. 354248) for the first three passages. The 857933-349-R-J2-PDC line was cultured in 6C/Colon 1B media, which includes advanced DMEM/F-12 (Thermo Fisher Scientific, cat. 12634028), 10 mM HEPES (Thermo Fisher Scientific, cat. 15630080), 1X GlutaMAX supplement (Thermo Fisher Scientific, cat. 35050061), 0.1 mg/mL primocin (InvivoGen, cat. ant-pm-2), 10% defined fetal bovine serum, heat inactivated (HyClone Laboratories Inc., cat. SH30070.03HI), 50% L-WRN conditioned media (ATCC, cat. CRL-3276), 1.25 mM N-Acetyl-L-cysteine (Sigma-Aldrich, cat. A9165), 10 mM nicotinamide (Sigma-Aldrich, cat. N0636), 1X B-27 supplement (Thermo Fisher Scientific, cat. 17504044), 1X N-2 supplement (Thermo Fisher Scientific, cat. 17502048), 10 microM Y-27632 dihydrochloride (Tocris Bioscience, cat. 1254), and 50 ng/mL human EGF recombinant protein (Thermo Fisher Scientific, cat. PHG0311). The 485176-168-R4-J1-PDC line was cultured in Panc media, which includes all 6C/Colon 1B media components plus 100 ng/mL human FGF-10 (Thermo Fisher Scientific, cat. 100-26), 500 nM SB-431542 (Selleckchem, cat. S1067), and gastrin (Tocris, cat. 3006).
[…]
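Also: spheroids exposed to the compounds for one week.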
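For viability, T/C in this document: percent of tumor spheroid viability relative to DMSO vehicle control wells.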

With Cn1ncnc1[C@H]1c2n[nH]c(=O)c3cc(F)cc(c23)N[C@@H]1c1ccc(F)cc1 the viability, T/C (compound 0.000999 µM) was 100% and 96.8% and 93.9%, the viability, T/C (compound 0.00316 µM) was 93.9% and 87.6% and 102% and the viability, T/C (compound 0.00999 µM) was 80.8% and 90.4% and 90%. The viability, T/C (compound 0.0316 µM) was 81.4% and 84.2% and 82.3%, the viability, T/C (compound 0.0999 µM) was 75.4% and 66.1% and 67.8% and the viability, T/C (compound 0.316 µM) was 50.8% and 45.5% and 53.5%. The IC50 (curve of compound) was > 316 nM and 246 nM.

CCCS(=O)(=O)Nc1ccc(F)c(C(=O)c2c[nH]c3ncc(-c4ccc(Cl)cc4)cc23)c1F + Cc1[nH]c2ccc(F)cc2c1-c1nc2c3cccnc3c3ncccc3c2[nH]1 gave an IC50 (curve of first compound, second compound 0.0316 µM) of 393 nM, an IC50 (curve of first compound, second compound 0.1 µM) of 406 nM and an IC50 (curve of first compound, second compound 0.316 µM) of 183 nM. For the same compound, the IC50 (curve of first compound, second compound 1 µM) was 49.3 nM, the IC50 (curve of first compound, second compound 3.16 µM) was < 31.6 nM and the IC50 (curve of first compound, second compound 10 µM) was < 31.6 nM. It also gave a viability, T/C (second compound 0.0316 µM, first compound 0.0316 µM) of 112%, a viability, T/C (second compound 0.0316 µM, first compound 0.1 µM) of 98.4% and a viability, T/C (second compound 0.0316 µM, first compound 0.316 µM) of 60.7%. For the same compound, the viability, T/C (second compound 0.0316 µM, first compound 1 µM) was 8.66%, the viability, T/C (second compound 0.0316 µM, first compound 3.16 µM) was 3.89% and the viability, T/C (second compound 0.0316 µM, first compound 10 µM) was 2.96%. The viability, T/C (second compound 0.1 µM, first compound 0.0316 µM) was 121%, the viability, T/C (second compound 0.1 µM, first compound 0.1 µM) was 101% and the viability, T/C (second compound 0.1 µM, first compound 0.316 µM) was 64%. For the same compound, the viability, T/C (second compound 0.1 µM, first compound 1 µM) was 8.42%, the viability, T/C (second compound 0.1 µM, first compound 3.16 µM) was 2.95% and the viability, T/C (second compound 0.1 µM, first compound 10 µM) was 3.79%. It also gave a viability, T/C (second compound 0.316 µM, first compound 0.0316 µM) of 94.4%, a viability, T/C (second compound 0.316 µM, first compound 0.1 µM) of 74% and a viability, T/C (second compound 0.316 µM, first compound 0.316 µM) of 28.7%. The viability, T/C (second compound 0.316 µM, first compound 1 µM) was 2.94%, the viability, T/C (second compound 0.316 µM, first compound 3.16 µM) was 2.46% and the viability, T/C (second compound 0.316 µM, first compound 10 µM) was 4.34%. For the same compound, the viability, T/C (second compound 1 µM, first compound 0.0316 µM) was 68.3%, the viability, T/C (second compound 1 µM, first compound 0.1 µM) was 20.9% and the viability, T/C (second compound 1 µM, first compound 0.316 µM) was 4.4%. It also gave a viability, T/C (second compound 1 µM, first compound 1 µM) of 2.04%, a viability, T/C (second compound 1 µM, first compound 3.16 µM) of 2.3% and a viability, T/C (second compound 1 µM, first compound 10 µM) of 2.75%. For the same compound, the viability, T/C (second compound 3.16 µM, first compound 0.0316 µM) was 4.29%, the viability, T/C (second compound 3.16 µM, first compound 0.1 µM) was 3.06% and the viability, T/C (second compound 3.16 µM, first compound 0.316 µM) was 1.78%. The viability, T/C (second compound 3.16 µM, first compound 1 µM) was 2%, the viability, T/C (second compound 3.16 µM, first compound 3.16 µM) was 2.26% and the viability, T/C (second compound 3.16 µM, first compound 10 µM) was 2.26%. It also gave a viability, T/C (second compound 10 µM, first compound 0.0316 µM) of 1.32%, a viability, T/C (second compound 10 µM, first compound 0.1 µM) of 1.38% and a viability, T/C (second compound 10 µM, first compound 0.316 µM) of 1.47%. The viability, T/C (second compound 10 µM, first compound 1 µM) was 1.65%, the viability, T/C (second compound 10 µM, first compound 3.16 µM) was 2.7% and the viability, T/C (second compound 10 µM, first compound 10 µM) was 3.37%.
